Data set [1] is described as follows: Solubility of Compound A fumarate at 25° C. In kind it is physicochemical. The note with it: for solubility at 24 h: thermodynamic from solid. How it is done:
(§1) Solubility of the fumarate in FaSSIF is 0.09 mg/mL and 0.21 mg/mL in FeSSIF. […] The maximum water uptake by DVS is less than 0.1% up to 95% RH at 25° C.

A short description of data set [2]: Hygroscopicity, water uptake by DVS. In kind it is physicochemical. Here is the method: as §1
A short description of data set [3]: pHmax of the fumarate salt. In kind it is physicochemical. The settings on record: estimated. An excerpt: The pHmax of the fumarate salt is estimated to be about 4.5. An increase in pH above 4.5 may potentially increase the risk of disproportionation.
Data set [4] is described as follows: Disproportionation (XRPD) of ASAP batches. In kind it is physicochemical. How it is done:
The compatibility of Compound A fumarate was further evaluated in 21 days ASAP study involving three different formulation principles, wet granulation, dry blending and roller compaction. The drug load selected for study was 5% w/w, translating to 6.40% w/w of fumarate salt. The XRPD of the samples were evaluated at certain time intervals according to the Safety Protocol in Table 5.
The analysis was done for the samples stored at 21 days.

A short description of data set [5]: ADME/PK profile across tested species. Type of data set: in vivo. An excerpt: (§2) GastroPlus modeling predicted dissolution and/or solubility limitations of the free form of Compound A at high doses.
Data set [6] in a line: Solubility and dissolution rate of the free form in biorelevant media. Type of data set: physicochemical.
From the text: as §2

Structures can show the parent of a compound that is named as a salt.

Usually solubility stands for how much of the substance goes into solution per volume. `FC(F)OC1=CC(C(F)(F)F)=CN2C[C@@]3(CCC(F)(F)c4c3ccnc4Cl)N=C12` [Compound A fumarate, (S)-1′-chloro-8-(difluoromethoxy)-8′,8′-difluoro-6-(trifluoromethyl)-7′,8′-dihydro-3H,6′H-spiro[imidazo[1,2-a]pyridine-2,5′-isoquinoline]]: the solubility at 24 h in data set [1] (25 °C, aqueous buffer, pH 1.2 to pH 4.7) is at least 2000 µg/mL; in data set [1] (acetate buffer pH 4.7, aqueous buffer, 25° C., pH 4.7 buffer (acetate)), over 2000 µg/mL; in data set [1] (hydrochloric acid buffer pH 1.2, simulated gastric fluid, 25° C., pH 1.2 buffer (hydrochloric acid)) it was over 2000 µg/mL; in data set [1] (hydrochloric acid buffer pH 2, simulated gastric fluid, 25° C., pH 2 buffer (hydrochloric acid)) it was over 2000 µg/mL; in data set [1] (organic solvent or mixture, 25° C., Acetonitrile), over 100000 µg/mL; in data set [1] (organic solvent or mixture, 25° C., Ethanol), over 100000 µg/mL. The solubility at 24 h in data set [1] (phosphate buffer pH 6.8, aqueous buffer, 25° C., pH 6.8 buffer (phosphate)) is 30 µg/mL; in data set [1] (25° C., Water) it was over 2000 µg/mL; in data set [1] (25° C., pH 2.0 (SGF), simulated gastric fluid), over 2000 µg/mL; in data set [1] (25° C., pH 5.8 (FeSSIF), fed state simulating intestinal fluid), 210 µg/mL; in data set [1] (25° C., pH 6.5 (FaSSIF), fasted state simulating intestinal fluid), 90 µg/mL. In addition, the “Solid residues obtained after 24h equilibration” value in data set [1] (pH values of 5.4 and above) is given as “correspond to the free form”. The Hygroscopicity result in data set [2] was “non hygroscopic”. Besides, the “Maximum water uptake by DVS” value in data set [2] (up to 95% RH at 25° C.) is “less than 0.1%”. Moreover, the pHmax result in data set [3] was “about 4.5”. Also, the “Disproportionation result (XRPD)” value in data set [4] (50° C./75% RH - 21 days), in data set [4] (60° C./80% RH - 21 days), in data set [4] (70° C./41% RH - 21 days) and in data set [4] (80° C./50% RH - 21 days) was “No free form peak” in each case.
Consider `FC(F)OC1=CC(C(F)(F)F)=CN2C[C@@]3(CCC(F)(F)c4c3ccnc4Cl)N=C12` [Compound A, (S)-1′-chloro-8-(difluoromethoxy)-8′,8′-difluoro-6-(trifluoromethyl)-7′,8′-dihydro-3H,6′H-spiro[imidazo[1,2-a]pyridine-2,5′-isoquinoline]], for which, in data set [5], the Clearance entry is “low to very low” and the Oral bioavailability result is reported as “good”.
Take `FC(F)OC1=CC(C(F)(F)F)=CN2C[C@@]3(CCC(F)(F)c4c3ccnc4Cl)N=C12` [free form of Compound A, (S)-1′-chloro-8-(difluoromethoxy)-8′,8′-difluoro-6-(trifluoromethyl)-7′,8′-dihydro-3H,6′H-spiro[imidazo[1,2-a]pyridine-2,5′-isoquinoline]]: in data set [5], the Clearance entry was “low” and the Oral bioavailability entry is recorded as “moderate to high”. The Solubility result in data set [6] is given as “poor”. In addition, the Dissolution rate result in data set [6] (in biorelevant media) was “slow”.
